# In patent publication US4293549A, “Quinolinyl guanidines having antiinflammatory, analgesic or antipyretic activity” (Leo Pharmaceutical Products Ltd. A/S (Lovens Kemiske Fabrik, priority 1977, dated 1981):
# Legend:
# [1] = test system: stomachs; experiment: Gastro ulcerogenic activity in rats; format: in vivo; conditions: 24 hrs; for Mean severity: scale 0=no lesion to +4=perforation
# Description: Rats fasted for 9 hrs before treatment were given different doses of the compounds. 24 hrs later the animals were killed, the stomachs were removed, opened along the lesser curvature and gross examined for the presence of lesions and their severity. The severity was assessed according to an arbitrary scale from 0=no lesion to +4=perforation.
# [2] = Acute toxicity in mice after oral administration; conditions: mouse, in vivo, p.os, mortality assessed eight days after administration, read-out: LD50 (with confidence limits)
# Description: The acute toxicity was determined in mice after oral administration. The mortality was assessed eight days after the administration and the LD50 (dose causing the death of 50% of the animals treated) was calculated according to the statistical method of Litchfield and Wilcoxon (J.Pharmacol.Exp.Ther. 96, 99, (1949)).
# [3] = test system: carrageenin induced edema; experiment: Inhibition of carrageenin edema in rats; format: in vivo; conditions: 1 hr before carrageenin
# Description: Inhibitory activity toward carrageenin induced edema was assessed in rats using the technique of Winter C. A., Risley E. A., Nuss C. […] The compounds were orally administered suspended in 0.5% carboxymethylcellulose to 18 hrs fasting animals, 1 hr before the injection of carrageenin.
# [4] = test system: pain threshold; experiment: Analgetic effect in rats (Randall and Selitto); format: in vivo; conditions: 2 hrs after administration
# [5] = test system: adjuvant induced arthritis; experiment: Inhibition of adjuvant induced arthritis in rats; format: in vivo
# Excerpt: The compounds were orally administered suspended in 0.5% carboxymethylcellulose, daily, from the day of adjuvant injection to 28 days later.
# [6] = molecular target: T1, prostaglandin synthetase (Bos taurus, UniProt O62664); experiment: Inhibition of prostaglandin synthetase (bovine seminal vesicle homogenate); format: biochemical; conditions: lyophilized high speed precipitate of bovine seminal vesicle homogenate
# T1 construct: lyophilized high speed precipitate of bovine seminal vesicle homogenate as enzyme; from tissue; host or cells: bovine seminal vesicle homogenate, lyophilized high speed precipitate
# T1 sequence (O62664 25-600): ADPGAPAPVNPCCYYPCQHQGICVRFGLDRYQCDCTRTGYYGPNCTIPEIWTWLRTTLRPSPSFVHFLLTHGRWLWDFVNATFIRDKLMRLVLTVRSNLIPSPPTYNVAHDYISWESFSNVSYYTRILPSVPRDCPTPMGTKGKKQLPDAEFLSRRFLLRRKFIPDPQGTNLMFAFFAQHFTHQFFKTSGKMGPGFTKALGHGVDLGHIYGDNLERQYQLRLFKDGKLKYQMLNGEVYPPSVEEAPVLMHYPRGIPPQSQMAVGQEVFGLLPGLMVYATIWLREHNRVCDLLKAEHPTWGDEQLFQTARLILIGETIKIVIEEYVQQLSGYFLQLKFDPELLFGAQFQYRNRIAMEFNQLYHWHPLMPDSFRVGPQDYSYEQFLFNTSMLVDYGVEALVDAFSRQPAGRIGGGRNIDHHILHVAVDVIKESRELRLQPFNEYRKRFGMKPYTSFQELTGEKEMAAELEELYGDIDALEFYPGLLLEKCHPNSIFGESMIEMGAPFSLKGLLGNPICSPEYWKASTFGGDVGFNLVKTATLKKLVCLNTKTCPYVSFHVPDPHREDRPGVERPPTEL
# [7] = Antipyretic effect in rats; format: in vivo; conditions: over 180 min
# Description: The compounds were orally administered and the antipyretic index evaluated over 180 min. of the experiment.
smiles,measurement,setting,value
"COc1ccc2c(c1)c(CC(=O)O)c(C)n2C(=O)c1ccc(Cl)cc1 [Indomethacin, reference compound]",% with lesions,[1]; oral dose 5 mg/kg,20%
same,Mean severity,[1]; oral dose 5 mg/kg,1.3
same,% with lesions,[1]; oral dose 10 mg/kg,70%
same,Mean severity,[1]; oral dose 10 mg/kg,2.8
same,LD50 at 192 h,[2],23 mg/kg
same,% Inhibition 3 hrs after carrageenin,[3]; oral dose 0.5 mg/kg,34%
same,% Inhibition 3 hrs after carrageenin,[3]; oral dose 1 mg/kg,42%
same,% Inhibition 3 hrs after carrageenin,[3]; oral dose 10 mg/kg,65%
same,Increase of pain threshold,[4]; oral dose 1 mg/kg,19 mmHg
same,Increase of pain threshold,[4]; oral dose 3 mg/kg,34 mmHg
same,"% Inhibition of the swelling, 18th day, primary",[5]; daily oral dose 0.3 mg/kg,20.3%
same,"% Inhibition of the swelling, 18th day, secondary",[5]; daily oral dose 0.3 mg/kg,13.5%
same,"% Inhibition of the swelling, 28th day, primary",[5]; daily oral dose 0.3 mg/kg,25.9%
same,"% Inhibition of the swelling, 28th day, secondary",[5]; daily oral dose 0.3 mg/kg,29.7%
same,"% Inhibition of the swelling, 18th day, primary",[5]; daily oral dose 1 mg/kg,62.4%
same,"% Inhibition of the swelling, 18th day, secondary",[5]; daily oral dose 1 mg/kg,66.2%
same,"% Inhibition of the swelling, 28th day, primary",[5]; daily oral dose 1 mg/kg,80.5%
same,"% Inhibition of the swelling, 28th day, secondary",[5]; daily oral dose 1 mg/kg,76.8%
"Cc1cc(/N=C(\Nc2nccs2)NC2CCCCC2)c2ccccc2n1 [SR 1368, N-Cyclohexyl-N""-4-(2-methylquinolyl)-N'-2-thiazolylguanidine]",% with lesions,[1]; oral dose 25 mg/kg,0%
same,Mean severity,[1]; oral dose 25 mg/kg,0
same,% with lesions,[1]; oral dose 50 mg/kg,20%
same,Mean severity,[1]; oral dose 50 mg/kg,0.9
same,% with lesions,[1]; oral dose 100 mg/kg,40%
same,Mean severity,[1]; oral dose 100 mg/kg,1.7
same,LD50 at 192 h,[2],> 1000 mg/kg
same,IC50,[6],2.46 µM
same,% Inhibition 3 hrs after carrageenin,[3]; oral dose 25 mg/kg,40%
same,% Inhibition 3 hrs after carrageenin,[3]; oral dose 50 mg/kg,62%
same,% Inhibition 3 hrs after carrageenin,[3]; oral dose 100 mg/kg,71%
same,Antipyretic index,[7]; oral dose 25 mg/kg,2.2
same,Antipyretic index,[7]; oral dose 50 mg/kg,5.6
same,Increase of pain threshold,[4]; oral dose 10 mg/kg,12 mmHg
same,Increase of pain threshold,[4]; oral dose 30 mg/kg,31 mmHg
same,Increase of pain threshold,[4]; oral dose 90 mg/kg,68 mmHg
same,"% Inhibition of the swelling, 18th day, primary",[5]; daily oral dose 5 mg/kg,23.5%
same,"% Inhibition of the swelling, 18th day, secondary",[5]; daily oral dose 5 mg/kg,14.9%
same,"% Inhibition of the swelling, 28th day, primary",[5]; daily oral dose 5 mg/kg,21.4%
same,"% Inhibition of the swelling, 28th day, secondary",[5]; daily oral dose 5 mg/kg,32.1%
same,"% Inhibition of the swelling, 18th day, primary",[5]; daily oral dose 10 mg/kg,29.2%
same,"% Inhibition of the swelling, 18th day, secondary",[5]; daily oral dose 10 mg/kg,54.4%
same,"% Inhibition of the swelling, 28th day, primary",[5]; daily oral dose 10 mg/kg,42.7%
same,"% Inhibition of the swelling, 28th day, secondary",[5]; daily oral dose 10 mg/kg,68.7%
same,"% Inhibition of the swelling, 18th day, primary",[5]; daily oral dose 30 mg/kg,44.2%
same,"% Inhibition of the swelling, 18th day, secondary",[5]; daily oral dose 30 mg/kg,53.2%
same,"% Inhibition of the swelling, 28th day, primary",[5]; daily oral dose 30 mg/kg,69.4%
same,"% Inhibition of the swelling, 28th day, secondary",[5]; daily oral dose 30 mg/kg,69.2%
same,"% Inhibition of the swelling, 18th day, primary",[5]; daily oral dose 60 mg/kg,51.6%
same,"% Inhibition of the swelling, 18th day, secondary",[5]; daily oral dose 60 mg/kg,73.4%
same,"% Inhibition of the swelling, 28th day, primary",[5]; daily oral dose 60 mg/kg,74.2%
same,"% Inhibition of the swelling, 28th day, secondary",[5]; daily oral dose 60 mg/kg,82.6%
